According to PubChem BioAssay AID1963985 (Molecular Pharmacology Branch, DTP, NCI, 2024):

System: 252836-082-R-J2-PDC tumor spheroids, viability
Assay: Anticancer human tumor 252836-082-R-J2-PDC patient-derived head and neck squamous cell carcinoma cell line growth inhibition [PI3K]
Conditions: spheroids with HUVEC and MSC; for IC50: curve of first compound; for viability, T/C: stronger effect = lower value
Outline: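 Viability of mixed-cell spheroids was determined after exposure to pairwise combinations, one partner being inavolisib, alpelisib, duvelisib or copanlisib. Highest tested concentration matched clinical Cmax where known and 10 microM where not, descending in half-log steps.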

[1] = second compound 0.0316 µM, first compound 0.000316 µM
[2] = second compound 0.0316 µM, first compound 0.001 µM
[3] = second compound 0.0316 µM, first compound 0.00316 µM
[4] = second compound 0.0316 µM, first compound 0.01 µM
[5] = second compound 0.0316 µM, first compound 0.0316 µM
[6] = second compound 0.0316 µM, first compound 0.1 µM
[7] = second compound 0.1 µM, first compound 0.000316 µM
[8] = second compound 0.1 µM, first compound 0.001 µM
[9] = second compound 0.1 µM, first compound 0.00316 µM
[10] = second compound 0.1 µM, first compound 0.01 µM
[11] = second compound 0.1 µM, first compound 0.0316 µM
[12] = second compound 0.1 µM, first compound 0.1 µM
[13] = second compound 0.316 µM, first compound 0.000316 µM
[14] = second compound 0.316 µM, first compound 0.001 µM
[15] = second compound 0.316 µM, first compound 0.00316 µM
[16] = second compound 0.316 µM, first compound 0.01 µM
[17] = second compound 0.316 µM, first compound 0.0316 µM
[18] = second compound 0.316 µM, first compound 0.1 µM
[19] = second compound 1 µM, first compound 0.000316 µM
[20] = second compound 1 µM, first compound 0.001 µM
[21] = second compound 1 µM, first compound 0.00316 µM
[22] = second compound 1 µM, first compound 0.01 µM
[23] = second compound 1 µM, first compound 0.0316 µM
[24] = second compound 1 µM, first compound 0.1 µM
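Also: spheroids exposed to agents for seven days before readout.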
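For viability, T/C in this document: percent of vehicle DMSO control viability so 100% = untreated growth.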

## CC(C)n1nc(-c2ccc3oc(N)nc3c2)c2c(N)ncnc21 + Cc1nc(NC(=O)N2CCCC2C(N)=O)sc1-c1ccnc(C(C)(C)C(F)(F)F)c1
Second compound 0.0316 µM
  IC50: 32.2 nM
Second compound 0.1 µM
  IC50: 27.6 nM
Second compound 0.316 µM
  IC50: 21.2 nM
Second compound 1 µM
  IC50: 12.6 nM
Second compound 3.16 µM
  IC50: < 0.316 nM
Second compound 10 µM
  IC50: < 0.316 nM
[1]
  viability, T/C: 84.3%
[2]
  viability, T/C: 76%
[3]
  viability, T/C: 98%
[4]
  viability, T/C: 71.5%
[5]
  viability, T/C: 51.7%
[6]
  viability, T/C: 21.3%
[7]
  viability, T/C: 83.8%
[8]
  viability, T/C: 83.1%
[9]
  viability, T/C: 79.8%
[10]
  viability, T/C: 63.9%
[11]
  viability, T/C: 49%
[12]
  viability, T/C: 23%
[13]
  viability, T/C: 82.1%
[14]
  viability, T/C: 73.1%
[15]
  viability, T/C: 75.8%
[16]
  viability, T/C: 59.6%
[17]
  viability, T/C: 44.4%
[18]
  viability, T/C: 20.7%
[19]
  viability, T/C: 56.5%
[20]
  viability, T/C: 53.4%
[21]
  viability, T/C: 61.6%
[22]
  viability, T/C: 48.7%
[23]
  viability, T/C: 42.6%
[24]
  viability, T/C: 19.5%
Second compound 3.16 µM, first compound 0.000316 µM
  viability, T/C: 43.2%
Second compound 3.16 µM, first compound 0.001 µM
  viability, T/C: 55.2%
Second compound 3.16 µM, first compound 0.00316 µM
  viability, T/C: 47.5%
Second compound 3.16 µM, first compound 0.01 µM
  viability, T/C: 40%
Second compound 3.16 µM, first compound 0.0316 µM
  viability, T/C: 28.6%
Second compound 3.16 µM, first compound 0.1 µM
  viability, T/C: 17.2%
Second compound 10 µM, first compound 0.000316 µM
  viability, T/C: 33.2%
Second compound 10 µM, first compound 0.001 µM
  viability, T/C: 31.1%
Second compound 10 µM, first compound 0.00316 µM
  viability, T/C: 29.6%
Second compound 10 µM, first compound 0.01 µM
  viability, T/C: 35.4%
Second compound 10 µM, first compound 0.0316 µM
  viability, T/C: 18.8%
Second compound 10 µM, first compound 0.1 µM
  viability, T/C: 8.12%

## CC(=O)c1c(C)c2cnc(Nc3ccc(N4CCNCC4)cn3)nc2n(C2CCCC2)c1=O + CC(Nc1ccc2c(c1)OCCn1cc(N3C(=O)OCC3C(F)F)nc1-2)C(N)=O
Second compound 0.00316 µM
  IC50: > 100 nM
Second compound 0.01 µM
  IC50: > 100 nM
Second compound 0.0316 µM
  IC50: > 100 nM
Second compound 0.1 µM
  IC50: > 100 nM
Second compound 0.316 µM
  IC50: > 100 nM
Second compound 1 µM
  IC50: < 0.316 nM
Second compound 0.00316 µM, first compound 0.000316 µM
  viability, T/C: 102%
Second compound 0.00316 µM, first compound 0.001 µM
  viability, T/C: 91.6%
Second compound 0.00316 µM, first compound 0.00316 µM
  viability, T/C: 94.5%
Second compound 0.00316 µM, first compound 0.01 µM
  viability, T/C: 89.8%
Second compound 0.00316 µM, first compound 0.0316 µM
  viability, T/C: 98.2%
Second compound 0.00316 µM, first compound 0.1 µM
  viability, T/C: 105%
Second compound 0.01 µM, first compound 0.000316 µM
  viability, T/C: 97.1%
Second compound 0.01 µM, first compound 0.001 µM
  viability, T/C: 84.9%
Second compound 0.01 µM, first compound 0.00316 µM
  viability, T/C: 93.7%
Second compound 0.01 µM, first compound 0.01 µM
  viability, T/C: 89.2%
Second compound 0.01 µM, first compound 0.0316 µM
  viability, T/C: 83.9%
Second compound 0.01 µM, first compound 0.1 µM
  viability, T/C: 87.9%
[1]
  viability, T/C: 90.8%
[2]
  viability, T/C: 76.1%
[3]
  viability, T/C: 74.1%
[4]
  viability, T/C: 70.7%
[5]
  viability, T/C: 81.4%
[6]
  viability, T/C: 82.4%
[7]
  viability, T/C: 68.8%
[8]
  viability, T/C: 68.9%
[9]
  viability, T/C: 69.8%
[10]
  viability, T/C: 70.8%
[11]
  viability, T/C: 66.5%
[12]
  viability, T/C: 67.5%
[13]
  viability, T/C: 54.9%
[14]
  viability, T/C: 53.6%
[15]
  viability, T/C: 65.1%
[16]
  viability, T/C: 50.7%
[17]
  viability, T/C: 62.2%
[18]
  viability, T/C: 55.7%
[19]
  viability, T/C: 47.5%
[20]
  viability, T/C: 45.6%
[21]
  viability, T/C: 41.9%
[22]
  viability, T/C: 42.4%
[23]
  viability, T/C: 44.9%
[24]
  viability, T/C: 45.1%
